Source: ChEMBL document CHEMBL1141242, “Estrogen receptor beta selective ligands: discovery and SAR of novel heterocyclic ligands” (Bioorg Med Chem Lett, 2005)

Assays:
[1] = target: T1, Estrogen receptor (Homo sapiens, UniProt P03372); assay: biochemical
T1 sequence (P03372 whole entry): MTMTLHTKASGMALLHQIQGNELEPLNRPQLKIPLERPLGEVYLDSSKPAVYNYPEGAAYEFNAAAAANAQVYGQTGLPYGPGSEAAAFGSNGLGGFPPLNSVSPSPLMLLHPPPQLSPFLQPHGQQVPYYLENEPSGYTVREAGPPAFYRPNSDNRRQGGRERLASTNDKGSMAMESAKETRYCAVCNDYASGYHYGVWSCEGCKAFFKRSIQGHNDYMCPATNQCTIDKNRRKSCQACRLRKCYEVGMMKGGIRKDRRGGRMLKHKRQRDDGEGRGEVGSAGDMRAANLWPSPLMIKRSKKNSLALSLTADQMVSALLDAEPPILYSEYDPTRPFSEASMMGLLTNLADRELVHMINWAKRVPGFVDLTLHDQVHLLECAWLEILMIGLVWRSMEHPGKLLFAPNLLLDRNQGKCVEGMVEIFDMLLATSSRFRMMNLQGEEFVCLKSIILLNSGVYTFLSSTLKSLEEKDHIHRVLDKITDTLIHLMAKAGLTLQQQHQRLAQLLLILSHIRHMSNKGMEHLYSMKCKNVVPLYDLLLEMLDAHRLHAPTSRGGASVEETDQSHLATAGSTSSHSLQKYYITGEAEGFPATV

[2] = target: Estrogen receptor beta (Homo sapiens, UniProt Q92731); assay: biochemical
Estrogen receptor beta (Homo sapiens, UniProt Q92731), sequence (Q92731 whole entry): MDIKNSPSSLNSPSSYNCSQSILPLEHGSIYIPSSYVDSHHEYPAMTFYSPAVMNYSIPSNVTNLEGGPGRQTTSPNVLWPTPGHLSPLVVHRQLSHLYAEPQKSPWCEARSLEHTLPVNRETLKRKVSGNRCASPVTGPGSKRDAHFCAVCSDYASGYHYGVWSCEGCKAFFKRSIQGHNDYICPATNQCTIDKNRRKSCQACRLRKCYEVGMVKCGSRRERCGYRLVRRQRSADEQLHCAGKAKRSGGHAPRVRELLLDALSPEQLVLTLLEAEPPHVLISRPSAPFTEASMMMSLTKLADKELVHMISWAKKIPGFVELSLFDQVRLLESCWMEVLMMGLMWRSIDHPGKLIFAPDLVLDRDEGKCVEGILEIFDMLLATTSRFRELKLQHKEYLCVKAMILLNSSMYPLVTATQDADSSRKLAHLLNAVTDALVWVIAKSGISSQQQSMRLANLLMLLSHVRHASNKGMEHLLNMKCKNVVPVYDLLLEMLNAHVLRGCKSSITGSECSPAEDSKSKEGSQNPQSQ

[3] = target: T1, Estrogen receptor
Description: Effect on ERalpha in MCF7 cell line transfected with ER responsive luciferase reporter

[4] = target: Estrogen receptor beta (Rattus norvegicus, UniProt Q62986)
Estrogen receptor beta (Rattus norvegicus, UniProt Q62986), sequence (Q62986 whole entry): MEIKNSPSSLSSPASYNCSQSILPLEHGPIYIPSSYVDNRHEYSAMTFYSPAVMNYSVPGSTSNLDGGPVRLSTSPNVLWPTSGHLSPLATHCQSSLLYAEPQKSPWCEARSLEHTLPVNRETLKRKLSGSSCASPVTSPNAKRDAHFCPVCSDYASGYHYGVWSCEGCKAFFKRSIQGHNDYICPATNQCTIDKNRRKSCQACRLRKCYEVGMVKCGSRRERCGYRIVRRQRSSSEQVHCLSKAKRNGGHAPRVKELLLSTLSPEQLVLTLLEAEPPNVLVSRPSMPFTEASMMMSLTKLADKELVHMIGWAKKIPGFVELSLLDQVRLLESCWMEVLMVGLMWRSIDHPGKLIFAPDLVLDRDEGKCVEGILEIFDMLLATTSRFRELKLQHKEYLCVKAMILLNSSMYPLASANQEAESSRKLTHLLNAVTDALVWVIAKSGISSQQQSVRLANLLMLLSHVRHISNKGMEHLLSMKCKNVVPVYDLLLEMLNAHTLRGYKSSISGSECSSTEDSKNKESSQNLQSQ
Description: Effect on ERbeta in rat ovary granulosa cell line transfected with ER responsive luciferase reporter

| SMILES | IC50 [1] [µM] | IC50 [2] [µM] | EC50 [3] [µM] | EC50 [4] [µM] |
| --- | --- | --- | --- | --- |
| Oc1ccc(-n2c(-c3ccccc3Cl)nc3ccccc32)cc1 | 1.73 | 0.149 | – | – |
| Oc1ccc(-c2noc(C(F)(F)F)c2-c2ccccc2)cc1 | 0.0085 | 0.0024 | – | – |
| Oc1ccc(-c2[nH]c3ccccc3c2-c2ccc(O)cc2)cc1 | 0.0948 | 0.0119 | – | – |
| Oc1ccc(-c2[nH]c3ccccc3c2-c2ccccc2)cc1 | 8.31 | 0.355 | – | – |
| Oc1ccc(-c2c(-c3ccccc3)[nH]c3ccccc23)cc1 | 0.024 | 0.00112 | 0.0385 | 0.00109 |
| Oc1ccc(-n2c(-c3ccccc3)nc3ccccc32)cc1 | 1.8 | 0.137 | – | – |
| Oc1ccc(-c2[nH]c(C(F)(F)F)nc2-c2ccccc2)cc1 | 0.403 | 0.0151 | 0.243 | 0.0067 |

Continued, values first:

| IC50 [1] [µM] | IC50 [2] [µM] | EC50 [3] [µM] | EC50 [4] [µM] | SMILES |
| --- | --- | --- | --- | --- |
| 6.95 | 0.171 | – | – | c1ccc(-c2[nH]c3ccccc3c2-c2ccccc2)cc1 |
| > 6.26 | 0.0497 | – | – | Oc1ccc(-n2c(-c3cccs3)nc3ccccc32)cc1 |
| 2.94 | 0.0281 | > 1 | 0.0408 | Cn1cccc1-c1nc2ccccc2n1-c1ccc(O)cc1 |
| 1.16 | 0.0143 | – | – | Cc1nocc1-c1nc2ccccc2n1-c1ccc(O)cc1 |
